# In ChEMBL document CHEMBL3885861, “Open TG-GATES”:
# Species on record: Rattus norvegicus
# Experiment: Open TG-GATES - Regimen: Single
# Format: toxicity, organism-based, Sprague-Dawley
# Set-up: regimen Single, gender Male, age 6 weeks
# Conditions: in vivo, po, 300 mg/kg, route gavage, dose level Middle; for APTT / Bas / Eos / Fbg / Hb / Ht / Lym / MCH / MCHC / MCV / Mono / Neu / PT / Plat / RBC / Ret / WBC: tissue Blood; for KIDNEY_L / KIDNEY_R / KIDNEY_TOTAL: tissue Kidney; for LIVER: tissue Liver; for A/G / ALP / ALT / AST / BUN / CRE / Ca / Cl / DBIL / GLC / IP / K / LDH / Na / PL / RALB / TBIL / TC / TG / TP / gamma-GTP: tissue Plasma
compound,measurement,setting,value
CC(=O)Nc1ccc2c(c1)Cc1ccccc1-2 [2-ACETYLAMINOFLUORENE],TERMINAL_BW,3 h,222.8 g
same,APTT,3 h,19.8 s
same,Bas,3 h,0.4%
same,Eos,3 h,1.2%
same,Fbg,3 h,222.4 mg/dL
same,Hb,3 h,13.9 g/dL
same,Ht,3 h,39.7%
same,Lym,3 h,69.8%
same,MCH,3 h,22.1 pg
same,MCHC,3 h,34.9%
same,MCV,3 h,63.3 fL
same,Mono,3 h,2.8%
same,Neu,3 h,25.4%
same,PT,3 h,12 s
same,Plat,3 h,131.6 x10_4/uL
same,RBC,3 h,626.2 x10_4/ul
same,Ret,3 h,7.1%
same,WBC,3 h,74.2 x10_2/uL
same,KIDNEY_L,3 h,1 g
same,KIDNEY_R,3 h,0.9 g
same,KIDNEY_TOTAL,3 h,1.9 g
same,LIVER,3 h,10.3 g
same,A/G,3 h,1.7
same,ALP,3 h,922.4 IU/L
same,ALT,3 h,39 IU/L
same,AST,3 h,78 IU/L
same,BUN,3 h,12.8 mg/dL
same,CRE,3 h,0.4 mg/dL
same,Ca,3 h,10.8 mg/dL
same,Cl,3 h,103.8 meq/L
same,DBIL,3 h,0.07 mg/dL
same,GLC,3 h,201.6 mg/dL
same,IP,3 h,10.2 mg/dL
same,K,3 h,3.9 meq/L
same,LDH,3 h,195.8 IU/L
same,Na,3 h,141.6 meq/L
same,PL,3 h,133.2 mg/dL
same,RALB,3 h,3.6 g/dL
same,TBIL,3 h,0.1 mg/dL
same,TC,3 h,74.6 mg/dL
same,TG,3 h,62.6 mg/dL
same,TP,3 h,5.7 g/dL
same,gamma-GTP,3 h,1.4 IU/L
same,TERMINAL_BW,6 h,219.1 g
same,APTT,6 h,20 s
same,Bas,6 h,0.6%
same,Eos,6 h,0.8%
same,Fbg,6 h,224.8 mg/dL
same,Hb,6 h,14.4 g/dL
same,Ht,6 h,41.9%
same,Lym,6 h,77.2%
same,MCH,6 h,21.9 pg
same,MCHC,6 h,34.4%
same,MCV,6 h,63.5 fL
same,Mono,6 h,2.2%
same,Neu,6 h,18.8%
same,PT,6 h,12.8 s
same,Plat,6 h,128 x10_4/uL
same,RBC,6 h,661.8 x10_4/ul
same,Ret,6 h,7.2%
same,WBC,6 h,67.5 x10_2/uL
same,KIDNEY_L,6 h,1 g
same,KIDNEY_R,6 h,1 g
same,KIDNEY_TOTAL,6 h,2 g
same,LIVER,6 h,10 g
same,A/G,6 h,1.6
same,ALP,6 h,837.8 IU/L
same,ALT,6 h,31.6 IU/L
same,AST,6 h,67.6 IU/L
same,BUN,6 h,12.2 mg/dL
same,CRE,6 h,0.5 mg/dL
same,Ca,6 h,10.8 mg/dL
same,Cl,6 h,102.6 meq/L
same,DBIL,6 h,0.068 mg/dL
same,GLC,6 h,218.2 mg/dL
same,IP,6 h,9.1 mg/dL
same,K,6 h,3.8 meq/L
same,LDH,6 h,191.4 IU/L
same,Na,6 h,141 meq/L
same,PL,6 h,144.4 mg/dL
same,RALB,6 h,3.5 g/dL
same,TBIL,6 h,0.1 mg/dL
same,TC,6 h,85.2 mg/dL
same,TG,6 h,32.6 mg/dL
same,TP,6 h,5.6 g/dL
same,gamma-GTP,6 h,1.2 IU/L
same,TERMINAL_BW,9 h,215.7 g
same,APTT,9 h,18.1 s
same,Bas,9 h,0.2%
same,Eos,9 h,0.6%
same,Fbg,9 h,233.8 mg/dL
same,Hb,9 h,13.9 g/dL
same,Ht,9 h,40.7%
same,Lym,9 h,74%
same,MCH,9 h,21.4 pg
same,MCHC,9 h,34.2%
same,MCV,9 h,62.5 fL
same,Mono,9 h,2.8%
same,Neu,9 h,21.8%
same,PT,9 h,13 s
same,Plat,9 h,136.5 x10_4/uL
same,RBC,9 h,652 x10_4/ul
same,Ret,9 h,7.4%
same,WBC,9 h,80.9 x10_2/uL
same,KIDNEY_L,9 h,1 g
same,KIDNEY_R,9 h,1 g
same,KIDNEY_TOTAL,9 h,1.9 g
same,LIVER,9 h,9.7 g
same,A/G,9 h,1.6
same,ALP,9 h,756.6 IU/L
same,ALT,9 h,31.4 IU/L
same,AST,9 h,68 IU/L
same,BUN,9 h,10.4 mg/dL
same,CRE,9 h,0.4 mg/dL
same,Ca,9 h,10.5 mg/dL
same,Cl,9 h,103.4 meq/L
same,DBIL,9 h,0.06 mg/dL
same,GLC,9 h,206.4 mg/dL
same,IP,9 h,8.9 mg/dL
same,K,9 h,4 meq/L
same,LDH,9 h,184.6 IU/L
same,Na,9 h,140.2 meq/L
same,PL,9 h,125 mg/dL
same,RALB,9 h,3.5 g/dL
same,TBIL,9 h,0.1 mg/dL
same,TC,9 h,72.2 mg/dL
same,TG,9 h,32.2 mg/dL
same,TP,9 h,5.7 g/dL
same,gamma-GTP,9 h,1.2 IU/L
same,TERMINAL_BW,24 h,220.9 g
same,APTT,24 h,19.1 s
same,Bas,24 h,0.6%
same,Eos,24 h,1%
same,Fbg,24 h,210.8 mg/dL
same,Hb,24 h,14.5 g/dL
same,Ht,24 h,41.9%
same,Lym,24 h,75.2%
same,MCH,24 h,22.2 pg
same,MCHC,24 h,34.8%
same,MCV,24 h,63.7 fL
same,Mono,24 h,3.2%
same,Neu,24 h,19.8%
same,PT,24 h,14.4 s
same,Plat,24 h,131.6 x10_4/uL
same,RBC,24 h,657.8 x10_4/ul
same,Ret,24 h,5.9%
same,WBC,24 h,77.9 x10_2/uL
same,KIDNEY_L,24 h,1 g
same,KIDNEY_R,24 h,1 g
same,KIDNEY_TOTAL,24 h,2 g
same,LIVER,24 h,11 g
same,A/G,24 h,1.7
same,ALP,24 h,865 IU/L
same,ALT,24 h,35.4 IU/L
same,AST,24 h,74 IU/L
same,BUN,24 h,15.6 mg/dL
same,CRE,24 h,0.4 mg/dL
same,Ca,24 h,10.6 mg/dL
same,Cl,24 h,105.2 meq/L
same,DBIL,24 h,0.098 mg/dL
same,GLC,24 h,196.6 mg/dL
same,IP,24 h,9.1 mg/dL
same,K,24 h,4.3 meq/L
same,LDH,24 h,212.8 IU/L
same,Na,24 h,140.6 meq/L
same,PL,24 h,117 mg/dL
same,RALB,24 h,3.3 g/dL
same,TBIL,24 h,0.2 mg/dL
same,TC,24 h,52 mg/dL
same,TG,24 h,75.8 mg/dL
same,TP,24 h,5.2 g/dL
same,gamma-GTP,24 h,1.2 IU/L
